Measurements reported in patent US4937249A, “Imide derivatives and their pharmaceutical use” (Sumitomo Pharmaceuticals Company, Limited, priority 1987, dated 1990).
Read-outs that look alike come from different tables or passages of the source.

Assays:
[1] = tested on: climbing behavior induced by apomorphine in mice; assay: Anti-climbing activity (climbing behavior induced by apomorphine in mice); format: in vivo, mice (dd strain male); details: Mus musculus, po
Source text: This activity was examined through the anticlimbing behavior test, i.e. the test for suppressing the climbing behavior induced by apomorphine in mice. A designed amount of the test compound was orally administered to several groups of dd strain male mice (bodyweight, 20 to 25 g; one group, 5 mice), and each of the animals was charged in an individual column cage of 12 cm in diameter and 14 cm in height having metal poles (each pole, 2 mm in diameter) vertically installed and arranged along the periphery with intervals of 1 cm. […]
0 All the paws were on the floor
1 Only forepaws seized the pole of the cage
2 All the paws seized the pole of the cage;
climbing behavior observed discontinu-
3 Continuous climbing behavior observed

dopamine D2 receptor = molecular target: T1, dopamine D2 receptor (Bos taurus, UniProt P20288); assay: Dopamine D2 receptor binding assay (displacement of [3H] spiperone, membrane fractions of corpus striatum); set-up: species or system bovine
T1 construct: from tissue; host or cells: bovine corpus striatum, washed membrane fractions
T1 sequence (P20288 whole entry): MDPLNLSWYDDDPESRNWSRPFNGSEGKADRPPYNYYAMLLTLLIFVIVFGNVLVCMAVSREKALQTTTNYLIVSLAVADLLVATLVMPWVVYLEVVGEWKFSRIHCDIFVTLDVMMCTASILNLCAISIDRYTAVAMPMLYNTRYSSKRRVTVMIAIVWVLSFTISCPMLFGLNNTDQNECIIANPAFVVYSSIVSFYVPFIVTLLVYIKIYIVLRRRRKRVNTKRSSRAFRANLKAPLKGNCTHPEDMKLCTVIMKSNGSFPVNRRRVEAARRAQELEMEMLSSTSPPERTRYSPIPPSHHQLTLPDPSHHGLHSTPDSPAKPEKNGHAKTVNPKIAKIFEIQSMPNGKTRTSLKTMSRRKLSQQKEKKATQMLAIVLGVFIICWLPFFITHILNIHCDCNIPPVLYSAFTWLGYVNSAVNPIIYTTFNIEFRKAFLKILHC
Procedure: Fresh corpus striatum taken out from bovine brain was homogenized in a 20-fold dilution of Tris-HCl buffer solution (pH, 7.4; 0.05 M) and centrifuged (50,000×g) for 10 minutes to give the membrane fractions, which were washed with the same volume of the buffer solution twice to give the membrane fractions for assay.
Number of bindings specific to the D2 receptor in [^3 H] spiperone in a designed concentration of the test compound was measured according to the following equation and the IC50 and Ki was determined thereon on the basis of a hill plot: [formula] l: concentration of [^3 H] spiperone on assay KD : dissociation constant of [^3 H] spiperone

5-HT2 receptors = assay: Anti-head twitching activity (anti-5-HT2 activity; 5-methoxytryptamine-induced head twitches in mice); format: in vivo, mice (dd strain male); details: Mus musculus, po, nialamide 30 mg/kg i.p., 5-MT 2.5 mg/kg i.v., head twitches for 3 minutes
Procedure: It is known that the efficacy on the negative symptom can be evaluated through anti-5-hydroxytryptamine 2 (5-HT2) activity. […] Based on the above knowledges, test for measurement of head twitches in mice was carried out for evaluation of the anti-5-HT2 activity.

[2] = 1 hr, apomorphine 1.0 mg/kg s.c., mice, read-out: ED50 (p.o.) 1 hr

SMILES | ED50 ([1]; 1 h, read-out: ED50 (p.o.) 1 hr) [mg/kg] | ED50 ([1]; 4 h, read-out: ED50 (p.o.) 4 hrs) [mg/kg] | ED50 [1, 2] [mg/kg] | Ki (dopamine D2 receptor) [nM] | ED50 (5-HT2 receptors) [mg/kg] | ED50 ([1]; 4 hrs, apomorphine 1.0 mg/kg s.c., mice, read-out: ED50 (p.o.) 4 hrs) [mg/kg] | Ki (dopamine D2 receptor; [3H] spiperone 1 nM, 37° C., 30 minutes, bovine corpus striatum membranes, read-out: Ki) [nM]
CN(C)CCCN1c2ccccc2Sc2ccc(Cl)cc21 [Chlorpromazine, 2-chloro-10-(3-dimethylaminopropyl)-phenothiazine] | 1.8 | 8.8 |  |  |  |  | 
O=C1CC2(CCCC2)CC(=O)N1CCCCN1CCN(c2nsc3ccccc23)CC1 [Tiaspirone, 8-[4-(3-benzisothiazolyl)-1-piperazinylbutyl]-8-azaspiro[4,5]decane-7,9-dione] |  |  | 9.4 | 0.5 | 4 |  | 
O=C1C2CCCCC2C(=O)N1CCCCN1CCC(c2noc3cc(F)ccc23)CC1 (stereo not drawn) [Example 1, N-[4-{4-(6-Fluoro-1,2-benzisoxazol-3-yl)piperidinyl}butyl]cyclohexane-1,2-dicarboximide] |  |  | 0.92 |  | 0.3 to 1 | 2.3 | 0.37
